The target of assay [1] is Sodium-dependent dopamine transporter (Homo sapiens, UniProt Q01959). Put plainly: Displacement of [3H]WIN-35428 from DAT. A general note: In a radioligand displacement assay an active substance lowers the binding of a labelled ligand.
Assay [2] concerns the target Sodium-dependent noradrenaline transporter (Homo sapiens, UniProt P23975). The assay is described as follows: Displacement of [3H]nisoxetine from NET.
The target in assay [3] is Sodium-dependent serotonin transporter (Homo sapiens, UniProt P31645). The assay is described as follows: Displacement of [3H]paroxetine from 5HTT.
Chain of Sodium-dependent serotonin transporter (P31645 whole entry): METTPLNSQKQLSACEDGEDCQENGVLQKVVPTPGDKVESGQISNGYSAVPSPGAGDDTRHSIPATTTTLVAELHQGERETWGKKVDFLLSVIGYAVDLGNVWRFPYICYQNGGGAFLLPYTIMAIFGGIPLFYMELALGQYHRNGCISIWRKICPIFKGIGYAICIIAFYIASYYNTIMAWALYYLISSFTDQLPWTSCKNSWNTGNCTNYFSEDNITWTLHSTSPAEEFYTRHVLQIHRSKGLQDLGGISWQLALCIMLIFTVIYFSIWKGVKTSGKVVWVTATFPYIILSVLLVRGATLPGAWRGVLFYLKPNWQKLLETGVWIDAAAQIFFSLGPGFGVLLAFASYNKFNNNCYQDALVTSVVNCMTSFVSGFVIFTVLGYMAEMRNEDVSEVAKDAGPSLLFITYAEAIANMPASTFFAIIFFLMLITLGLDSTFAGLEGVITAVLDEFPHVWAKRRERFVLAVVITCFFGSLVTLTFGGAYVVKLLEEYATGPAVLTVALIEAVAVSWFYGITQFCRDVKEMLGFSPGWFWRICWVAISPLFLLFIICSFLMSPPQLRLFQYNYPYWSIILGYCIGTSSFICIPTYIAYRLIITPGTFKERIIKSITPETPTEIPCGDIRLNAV
The species named for assay [4] is Homo sapiens. Put plainly: Selectivity for DAT over NET.
Assay [5] is filed under the species Homo sapiens. The assay is described as follows: Selectivity for DAT over 5HTT.

Each structure is given as a SMILES string.

Chain of Sodium-dependent noradrenaline transporter (P23975 whole entry): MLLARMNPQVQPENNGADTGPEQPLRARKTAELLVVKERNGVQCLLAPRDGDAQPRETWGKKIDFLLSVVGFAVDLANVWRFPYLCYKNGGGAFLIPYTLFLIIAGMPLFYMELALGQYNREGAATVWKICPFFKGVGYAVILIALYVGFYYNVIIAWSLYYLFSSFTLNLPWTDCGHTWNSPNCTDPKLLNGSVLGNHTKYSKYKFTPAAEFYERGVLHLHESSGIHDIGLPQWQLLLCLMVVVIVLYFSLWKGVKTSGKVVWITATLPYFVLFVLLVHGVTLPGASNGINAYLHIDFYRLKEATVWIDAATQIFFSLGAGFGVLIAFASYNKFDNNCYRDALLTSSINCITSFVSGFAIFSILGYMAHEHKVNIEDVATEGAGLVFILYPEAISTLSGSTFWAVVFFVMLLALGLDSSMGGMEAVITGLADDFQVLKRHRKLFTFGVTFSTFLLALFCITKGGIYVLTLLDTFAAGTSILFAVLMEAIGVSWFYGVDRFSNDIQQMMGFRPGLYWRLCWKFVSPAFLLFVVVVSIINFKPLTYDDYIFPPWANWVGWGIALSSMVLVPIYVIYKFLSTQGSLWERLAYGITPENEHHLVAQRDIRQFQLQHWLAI
Chain of Sodium-dependent dopamine transporter (Q01959 whole entry): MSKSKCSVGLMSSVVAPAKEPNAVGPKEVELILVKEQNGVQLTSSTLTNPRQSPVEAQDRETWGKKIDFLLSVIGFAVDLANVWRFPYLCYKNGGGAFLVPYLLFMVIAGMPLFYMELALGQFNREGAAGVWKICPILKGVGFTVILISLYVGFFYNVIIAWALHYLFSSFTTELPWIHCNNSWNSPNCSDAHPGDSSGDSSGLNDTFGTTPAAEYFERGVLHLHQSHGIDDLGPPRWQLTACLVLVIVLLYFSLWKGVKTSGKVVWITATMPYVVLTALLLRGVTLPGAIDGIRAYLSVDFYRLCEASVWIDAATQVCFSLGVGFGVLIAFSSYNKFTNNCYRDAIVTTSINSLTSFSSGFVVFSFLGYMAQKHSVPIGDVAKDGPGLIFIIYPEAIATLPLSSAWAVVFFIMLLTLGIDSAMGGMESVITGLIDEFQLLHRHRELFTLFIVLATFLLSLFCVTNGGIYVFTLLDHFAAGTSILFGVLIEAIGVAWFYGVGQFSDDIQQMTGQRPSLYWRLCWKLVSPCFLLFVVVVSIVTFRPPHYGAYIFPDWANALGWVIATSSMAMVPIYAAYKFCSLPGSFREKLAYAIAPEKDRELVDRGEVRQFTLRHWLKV

The term IC50 denotes the point on the concentration scale where inhibition reaches its midpoint. What is called Ki is the equilibrium dissociation constant of an inhibitor or competing ligand from its target. A high value points to lower affinity. `COc1ccc([C@@H]2C3CCC(C[C@@H]2c2ccc(C)cc2)N3C)cc1OC` (some centres not stated): the IC50 in assay [1] came to 23.3 nM; in assay [2] it was 10000 nM; in assay [3], 13700 nM. For the same molecule, the Ki in assay [2] turned out to be 6000 nM; in assay [3], 1250 nM.

In the case of `Cc1ccc([C@H]2CC3CCC([C@H]2c2ccc(F)cc2)N3C)cc1` (some centres not stated), the IC50 was 0.9 nM in assay [1], 132 nM in assay [2] and 100 nM in assay [3]. Moreover, the Ki in assay [2] was found to be 61 nM; in assay [3], 25 nM.

On to `COc1ccc([C@@H]2C3CCC(C[C@@H]2c2ccc(C)cc2)N3C)cc1` (some centres not stated), for which the IC50 in assay [1] is 1.23 nM; in assay [2] it was 282 nM; in assay [3], 1670 nM. Also, the Ki in assay [2] is 191 nM; in assay [3], 410 nM.

As for `COC(=O)[C@@H]1C2CC[C@H](C[C@@H]1c1ccc(C)cc1)N2C`, in assay [1], the IC50 came out at 23.4 nM. Moreover, in assay [2], the 50% inhibitory concentration (IC50) amounted to 3850 nM and the Ki was 1930 nM.

Consider `COc1ccc([C@H]2C3CCC(C[C@H]2c2ccc(C)cc2)N3C)cc1` (some centres not stated), for which the values for the IC50 in assay [1] and in assay [3] were 238 nM and 1530 nM, respectively. The Ki in assay [3] came to 376 nM.

As for `Cc1ccc([C@H]2C3CCC(C[C@H]2c2ccccc2)N3C)cc1` (some centres not stated), the IC50 in assay [1] came out at 540 nM; in assay [2] it was 4700 nM; in assay [3], 11000 nM. Moreover, the Ki in assay [2] came out at 2800 nM; in assay [3], 1000 nM.

Consider `CN1C2CCC1[C@@H](c1ccccc1)[C@@H](c1ccccc1)C2` (some centres not stated), for which the IC50 was found to be 12.6 nM in assay [1], 920 nM in assay [2] and 21000 nM in assay [3]. Further, the results for the Ki in assay [2] and in assay [3] were 550 nM and 1900 nM, respectively.

In the case of `Cc1ccc([C@H]2CC3CCC([C@H]2c2ccccc2)N3C)cc1` (some centres not stated), the IC50 stood at 1.96 nM in assay [1], 480 nM in assay [2] and 1100 nM in assay [3]. The results for the Ki in assay [2] and in assay [3] were 280 nM and 100 nM, respectively.

In the case of `Cc1ccc([C@H]2CC3CCC([C@H]2c2ccc(C)cc2)N3C)cc1` (some centres not stated), the Selectivity ratio in the assay listed under Homo sapiens [4] was 289; in the assay filed under Homo sapiens [5] it was 185. The IC50 worked out at 1.35 nM in assay [1], 780 nM in assay [2] and 1010 nM in assay [3]. The Ki is 390 nM in assay [2] and 250 nM in assay [3].

Regarding `Cc1ccc([C@@H]2C3CCC(C[C@@H]2c2ccccc2)N3C)cc1` (some centres not stated), the results for the 50% inhibitory concentration (IC50) in assay [1], in assay [2] and in assay [3] were 22.4 nM, 6100 nM and 45000 nM, respectively. Besides, the Ki is 3700 nM in assay [2] and 4100 nM in assay [3].

For `Cc1ccc([C@@H]2CC3CCC([C@@H]2c2ccccc2)N3C)cc1` (some centres not stated), the IC50 amounted to 430 nM in assay [1], 4850 nM in assay [2] and 16000 nM in assay [3]. Besides, the Ki in assay [2] was determined as 2920 nM; in assay [3], 1500 nM.

In the case of `COc1ccc([C@@H]2C3CCC(C[C@H]2c2ccc(C)cc2)N3C)cc1OC` (some centres not stated), the IC50 in assay [1] came out at 980 nM; in assay [2] it was 78000 nM; in assay [3] it was 16200 nM. Besides, the Ki in assay [2] turned out to be 46000 nM; in assay [3], 1470 nM.

For `Cc1ccc([C@@H]2CC3CCC([C@@H]2c2ccc(C)cc2)N3C)cc1` (some centres not stated), the results for the IC50 in assay [2] and in assay [3] were 13000 nM and 10000 nM, respectively. The Ki in assay [2] was determined as 7800 nM; in assay [3], 910 nM.

Turning to `CN1C2CCC1[C@H](c1ccccc1)[C@H](c1ccccc1)C2` (some centres not stated), the IC50 in assay [1] came out at 690 nM; in assay [2], 1040 nM; in assay [3], 41000 nM. Also, the results for the Ki in assay [2] and in assay [3] were 626 nM and 3700 nM, respectively.

Values taken from ChEMBL document CHEMBL1140295, “Synthesis and monoamine transporter binding properties of 2,3-diaryltropanes” (J Med Chem, 2005).
